Reference: patent US6641840B2, “Sustained release formulations for growth hormone secretagogues” (Pfizer Inc., priority 2000, dated 2003)
Like-named read-outs stand apart in the source and are kept apart here.

Key:
[1] = One compartment pharmacokinetic model fitted to observed human plasma concentrations
Text: A one compartment pharmacokinetic model was constructed using the following equations (I Think, Stella, HPS, Hanover, N.H.): […]
where ba is bioavailability (1.0), Vdist_liter is volume of distribution in units of liters (0.75), ka_hr1 is absorption rate constant in units of reciprocal hr (1.3), and thalf_hr is the plasma concentration vs. time elimination half-life in units of hr (2.5).
These parameters were then fixed to the values noted above for all subsequent simulations.

[2] = Clinical study: body composition (total adipose and total lean tissue); assay type: in vivo, human
Protocol: (All dosage forms in this part of the study were immediate release dosage forms.)
(§1) In addition, an extension study was conducted to evaluate the relationship between peak GH concentrations or IGF-I versus surrogate responses such as lipid concentrations and body composition. A sustained release (SR) formulation was also evaluated, either alone or combined with an immediate release (IR) formulation (24-30 patients per group). [16 mg (10 SR, 6 IR) h.s. (h.s. means at bedtime); 16 mg (10 SR, 6 IR) h.s. every third day; 16 mg SR h.s.; and placebo.] The formulations are set forth below.
The primary efficacy endpoint was the percentage change from baseline in IGF-1. Secondary outcomes included insulin-like growth factor binding protein 3 (IGFBP-3), cholesterol subfractions, and percent changes in total adipose and total lean tissue. Changes in each of the secondary efficacy measures over time were examined systematically either graphically or in tabular form and summarized using appropriate descriptive statistics as is well known in the art.

rat pituitary cells = assay: Pituitary cell desensitization - growth hormone release assay; assay type: cell-based; details: for GH release: treatment 10 nM Compound A 15 min
Protocol: The experiment was designed so that cultures were exposed to a growth hormone secretagogue for 60 min, then growth hormone release was measured during a subsequent 15 min exposure to the same or different growth hormone secretagogue.
Anterior pituitary glands from male Wistar rats (150-175 g, Charles River, Laboratories, Wilmington, Mass.) were collected in Hank's Balanced Salt Solution (#14170, Life Technologies, Gaithersburg, Md.). Glands were minced with a scalpel, then incubated with bacterial protease (Type IX, EC3.4.24.4, #P-6141, Sigma Chemicals, Milwaukee, Wis.) at 10 U/ml to release individual cells. Cells were pelleted by centrifugation at 200×g for 15 min, then suspended in culture medium and plated at a density of 6.0-6.5×10^4 cells per 0.5 ml per well in 48-well tissue culture plates (#3848, Costar Corporation, Cambridge, Mass.). Culture medium consisted of D-MEM (Dulbecco's Modified Eagle Medium) with high glucose and sodium bicarbonate (#11965) supplemented with 10% heat-inactivated horse serum (#26050, Life Technologies, Gaithersburg, Md.), 2.5% fetal bovine serum (#16140, Life Technologies, Gaithersburg, Md.), 0.1 mM MEM non-essential amino acids (#11140, Life Technologies, Gaithersburg, Md.), 100 U/ml nystatin (#15340, Life Technologies, Gaithersburg, Md.) and 50 ug/ml gentamicin sulfate (#15750, Life Technologies, Gaithersburg, Md.). Cultures were maintained for 3-4 days in a humidified, 5% CO2/95% air incubator at 37° C. prior to performing assays for growth hormone release.
For growth hormone release assays, cultures were pre-equilibrated at 37° C. in pre-warmed release medium for 1 h in the presence of a growth hormone secretagogue or excipient (Pretreatment). Release medium consisted of Phenol Red-free D-MEM without bicarbonate (#23800, Life Technologies, Gaithersburg, Md.) supplemented with 25 mM N-[2-hydroxyethyl]piperazine-N′-[2-ethanesulfonic acid] (HEPES), 4.5 g/L glucose, 0.11 g/L sodium pyruvate, 0.584 g/L […] and 0.5% bovine serum albumin (#A-7888, Sigma Chemicals, Milwaukee, Wis.), adjusted to pH 7.4. After pretreatment, the medium was removed and replaced with fresh pre-warmed release medium containing a growth hormone secretagogue or excipient at 0.5 ml/well for 15 min (Treatment). Medium from the Treatment was collected, centrifuged to remove any cells, then assayed for growth hormone content by a conventional double-antibody radioimmunoassay using monkey anti-growth hormone antisera (NIDDK anti-rGH-S-5) and reference rat growth hormone standard (NIDDK-rGH-RP) from Dr. A. F. Parlow, Harbor-UCLA Medical Center, Torrance, Calif. Immune complexes were precipitated using goat anti-monkey immunoglobulin G (#55418, Cappel, Durham, N.C.).
Growth hormone secretagogue solutions were prepared at 1000 times the desired concentration and diluted into pre-warmed release medium immediately before use. Peptides such as His-D-Trp-Ala-Trp-Ala-Trp-D-Phe-Lys-NH2 (GHRP-6, #8061, Peninsula Laboratories, Belmont, Calif.) and rat growth hormone releasing factor (GHRH, #8068, Peninsula Laboratories, Belmont, Calif.) were dissolved at 100 μM in 4 mM acetic acid, 10% ethanol, 0.1% bovine serum albumin; other growth hormone secretagogues were dissolved at 5 mM in dimethyl sulfoxide.

growth hormone = assay: Clinical extension study: growth hormone secretion profile (GH peaks); assay type: in vivo, human
Protocol: as §1
In addition to this schedule, subjects at selected sites in the extension study were studied during two overnight admissions on the first night of dosing and again on day 28 of dosing. Growth hormone secretion and pharmacokinetic sampling was carried out.
A follow-up evaluation was made at 1, 2, and 4 weeks. Vital signs were obtained and the skin of the face, trunk and upper extremities was inspected.
In addition, subjects at selected study centers were admitted to an overnight unit on day 28 of dosing. Growth hormone secretion profile, pharmacokinetics, and vital sign determination were carried out.

[3] = Osmotic agent selection based on active compound solubility screening; assay type: physicochemical; details: 37 °C, aqueous with cosolvent or surfactant or cyclodextrin
Protocol: The osmogens were screened by preparing a saturated solution (unless otherwise noted) of the candidate osmogen in water at 37° C. for 2 hours, and filtering the undissolved portion as described in Example 5.

[4] = fitted one compartment model, humans
[5] = first leg, immediate release dosing

Structure (SMILES): CN1N=C2CCN(C(=O)[C@@H](COCc3ccccc3)NC(=O)C(C)(C)N)C[C@@]2(Cc2ccccc2)C1=O.O=C(O)C(O)C(O)C(=O)O [Compound A]
- absorption rate constant (ka_hr1) [1, 4]: 1.3 reciprocal hr
- plasma concentration vs. time elimination half-life (thalf_hr) [1, 4]: 2.5 h
- volume of distribution (Vdist_liter) [1, 4]: 0.75 L
- bioavailability (ba) ([1]; fitted to observed plasma concentrations after oral 10, 3 and 0.3 mg doses to humans): 1.0
- increases in lean tissue ([2]; extension study, two groups receiving IR formulation): 0.5-0.6%
- adipose tissue (body composition) [2, 5]: decreased
- apparent whole body lean mass [2, 5]: increased
- growth hormone release response (rat pituitary cells; after pretreatment with GHRH): stimulation of growth hormone release
- growth hormone release response (rat pituitary cells; after pretreatment with GHRP-6): not
- GH release (rat pituitary cells; pretreatment 100 nM GHRH 60 min): 36.99 ± 2.43 ng/mL/15 min
- GH release (rat pituitary cells; pretreatment 100 nM GHRP-6 60 min): 7.64 ± 1.92 ng/mL/15 min
- GH release (rat pituitary cells; pretreatment none): 25.17 ± 4.32 ng/mL/15 min
- GH peak heights, Q 3 day group greater than QD group (growth hormone; 16 mg (10 SR, 6 IR) every third day vs daily): 1.52 ng/mL
- GH peaks, average (growth hormone; group receiving SR alone (16 mg SR h.s.), after 4 weeks): 2 ng/mL
- GH peaks, average (growth hormone; group receiving SR alone (16 mg SR h.s.), at baseline): less than 4 ng/ml
- GH peaks, average (growth hormone; groups receiving 6 mg IR (with 10 mg SR), at baseline): ≥ 15 ng/mL
- GH peaks, average (growth hormone; groups receiving 6 mg IR (with 10 mg SR), by 4 weeks): 4 to 6 ng/mL
- solubility at 5 min ([3]; filtrate of osmogen solution in water, fructose solution 250 mg/ml (below saturation), read-out: COMPOUND A Solubility): < 50 mg/mL
- solubility at 5 min ([3]; filtrate of osmogen solution in water, visual screening, read-out: active compound solubility measured in this manner): > 150 mg/mL
- solubility at 5 min ([3]; filtrate of saturated lactose solution in water, saturated lactose solution, approx. 200 mg/ml, read-out: COMPOUND A Solubility): > 150 mg/mL
- solubility at 5 min ([3]; filtrate of saturated mannitol solution in water, saturated mannitol solution, approx. 180 mg/ml, read-out: COMPOUND A Solubility): > 150 mg/mL
- solubility at 5 min ([3]; filtrate of saturated sodium bitartrate solution in water, saturated sodium bitartrate solution, approx. 110 mg/ml, read-out: COMPOUND A Solubility): > 150 mg/mL
- solubility at 5 min ([3]; sorbitol solution in water, 250 mg/ml (below saturation), sorbitol solution 250 mg/ml (below saturation), read-out: COMPOUND A Solubility): > 150 mg/mL
- solubility at 5 min ([3]; xylitol solution in water, 250 mg/ml (below saturation), xylitol solution 250 mg/ml (below saturation), read-out: COMPOUND A Solubility): < 50 mg/mL
